Here are results for 6 molecules from EP1764363A2, “Substituted acetophenonederivatives” (Riemser Arzneimittel AG, priority 2005, dated 2007).

Structures are written as SMILES. Values joined by “and” are separate entries in the source; they are usually repeats but may differ in a detail not shown here. Identical values can stand only once. Marks after values point to notes of the source that are not given here.

For assay [1], the system named is S. falcium. Briefly: Minimal inhibitory concentration (MHK), microtitre plate, TTC staining. It counts as cell-based. As to conditions: 48h, 36°C.
Assay [2] has as its system Bacillus subitilis. Described as above. The class given is cell-based. As to conditions: 48h, 36°C.
Assay [3] deals with Salmonella sp. Described as above. The class given is cell-based. The following applies: 48h, 36°C. The text has this: Das Inokulum für die Tests wurde durch Verdünnung der Mikroorganismen in wässriger 0,85% NaCI-Lösung hergestellt, die Verdünnung auf die Stufe 0,5 nach McFarland eingestellt und die Konzentration spektrometrisch bei einer Wellenlänge von 580nm überprüft. Die Zellsuspensionen wurden zur Verwendung in den Tests auf 10^4 UFC/ml verdünnt. Die MHK-Tests erfolgten (Vorschrift nach J. N. P. Eloff, Planta Medica, Vol. 64, 1998, p 711-713) in Mikrotiterplatten mit 96 Vertiefungen. Serienverdünnungen der Konzentrationen lagen im Bereich 1,00 - 0,0015 mg/mL. Als Kontrollsubstanzen dienten Chloramphenicol bzw. Nistatin (Merck) in einer Konzentration von 0,062 - 0,005 mg/ml bzw. 0,0125 - 0,001 mg/ml. Das Inokulum (100 µl) wurde in alle Vertiefungen gegeben und die Platten für 48h bei 36°C inkubiert. Die antimikrobielle Aktivität wurde durch Zugabe von 20 µl einer 0,5% igen wässrigen Lösung von TTC (Tetrazoliumchlorid, Merck) pro Vertiefung detektiert. Die minimale Hemmkonzentration (MHK) wird als die niedrigste Konzentration der Verbindung definiert die das sichtbare Wachstum hemmt (durch TTC-Färbung indiziert).

Assay [4] concerns Escherichia coli. The assay is described as above. The following applies: 48h, 36°C. It counts as cell-based.
Assay [5] deals with E. faecium. The description is as above. The class given is cell-based. As to conditions: 48h, 36°C.
The subject of assay [6] is S. aureus. The assay is described as above. It counts as cell-based. The following applies: 48h, 36°C.
Assay [7] has as its system Rhodococcus equi. The description is as above. It counts as cell-based. The following applies: 48h, 36°C.
In assay [8] the test system is Micrococcus luteus. The description is as above. It counts as cell-based. The following applies: 48h, 36°C.
For assay [9], the system named is S. epidermides. The assay is described as above. As to conditions: 48h, 36°C. The class given is cell-based.
The subject of assay [10] is Staphylococcus aureus (Stamm ATCC 6538). Briefly: Mouse ear test (in vivo), antiseptic effect. The following applies: mouse ears infected with S. aureus ATCC 6538; germ count vs infected untreated animal after 18 and 24 h. Further details: key to Keimwachstum (grade): +++: totale Verhinderung des Keimwachstums; ++: Keimwachstum deutlich reduziert aber nicht völlig unterdrückt.

Assay [11] is described as follows: Radical scavenger screening with DPPH radicals (DPPH test). The following applies: Konzentrationen 500 und 1000µg/ml. The text has this:
[…] die 6 Verbindungen HMF2, HMF-3, CH-1, L5, Q20 und […]. Die […] durch den DPPH-Test ermittelt, wobei sich die UV/VIS-Absorption des freien stabilen […] (Diphenyl-β-picrylhydrazin) in Abhängigkeit vom Zustand von […]. Die Auswertung erfolgt qualitativ (dünnschichtchromatographisch) und quantitativ (photometrisch) mit Ascorbinsäure […] Molyneux P. (2004) The use of the stabel free radical diphenylpicrylhydrazyl (DPPH) for estimating antioxidant activity. Songklanakarin J Sci Technol. 26(2): 211-219).

Assay [12] relates to Candida albicans. Put plainly: Minimal inhibitory concentration (MHK), microtitre plate, TTC staining. It counts as cell-based. As to conditions: 48h, 36°C.

In the case of `O=C(N[C@H](CO)[C@H](O)c1ccc([N+](=O)[O-])cc1)C(Cl)Cl` [Chloramphenicol, reference compound], the MHK-Werte is 0,12 mg/ml in assay [1]; 0,02 mg/ml in assay [2]; 0,06 mg/ml in [3]; 0,04 mg/ml in assay [4]; 0,12 mg/ml in assay [5]; 0,02 mg/ml in [6]. Further, the figures for the MHK-Werte in assay [7], in assay [8] and in assay [9] were 0,04 mg/ml, 0,05 mg/ml and 0,04 mg/ml, respectively.

Turning to `CC(C)=CCOc1ccccc1C(C)=C(C#N)C#N` [L5, 2-{1-[2-(3-Methylbut-2-enyloxy}phenyl]ethyliden}-malononitril], in [10], the “Keimwachstum (grade)” value is “+++”. The molecule also gave a Radikalfänger-Effekt in [11] of 60%.

With `C[C@@H]1[C@H](O)[C@@H](C)/C=C/C=C/CC/C=C/C=C/C=C/C=C/C(O[C@H]2O[C@H](C)[C@@H](O)[C@H](N)[C@@H]2O)CC2O[C@](O)(CC(O)C(O)CCC(O)CC(O)CC(O)CC(=O)O[C@H]1C)CC(O)C2C(=O)O` (some centres unmarked) [Nistatin, reference compound], in assay [12], the MHK-Werte is 0,05** mg/ml and 0,12** mg/ml.

In the case of `CC(=C(C#N)C#N)c1ccc(O)cc1` [OK, 2-[1-(4-Hydroxyphenyl)ethyliden]malonitril], the MHK-Werte in assay [1] is 0,5-1,0 mg/ml; in assay [2] it was 0,12-0,25 mg/ml; in [4], 0,5-1,0 mg/ml; in assay [5], 0,12-0,25 mg/ml; in assay [12], 0,5-1,0 mg/ml; in [6] it was 0,25-0,5 mg/ml. In addition, the values for the MHK-Werte in [7], in assay [8] and in assay [9] were 0,5-1,0 mg/ml, 0,12-0,25 mg/ml and 0,03-0,06 mg/ml, respectively.

For the molecule `COc1ccc(C=CC(=O)c2ccccc2O)cc1` [CH-1, 1-(2-Hydroxyphenyl)-3-(4-methoxyphenyl)propenon], the “Keimwachstum (grade)” value in assay [10] is “++”.

Take `CC(C)=CCOc1ccc(C(C)=C(C#N)C#N)cc1` [LPK1, 2-{1-[4-(3-Methylbut-2-enyloxy)phenyl]ethyiliden}-malononitril]: the MHK-Werte in assay [1], in assay [2], in assay [3], in assay [4], in assay [5] and in [12] was > 1,5 mg/ml throughout. Further, the MHK-Werte is on record as > 1,5 mg/ml in assay [6], > 1,5 mg/ml in assay [7], > 1,5 mg/ml in assay [8] and 0,5-1,0 mg/ml in assay [9].
